One data set has as its target T1, human rChAT (Homo sapiens, UniProt P28329).
T1 construct: made in house; host or cells: E. coli BL21 Rosetta2
T1 sequence (P28329 1-630 isoform P28329-3): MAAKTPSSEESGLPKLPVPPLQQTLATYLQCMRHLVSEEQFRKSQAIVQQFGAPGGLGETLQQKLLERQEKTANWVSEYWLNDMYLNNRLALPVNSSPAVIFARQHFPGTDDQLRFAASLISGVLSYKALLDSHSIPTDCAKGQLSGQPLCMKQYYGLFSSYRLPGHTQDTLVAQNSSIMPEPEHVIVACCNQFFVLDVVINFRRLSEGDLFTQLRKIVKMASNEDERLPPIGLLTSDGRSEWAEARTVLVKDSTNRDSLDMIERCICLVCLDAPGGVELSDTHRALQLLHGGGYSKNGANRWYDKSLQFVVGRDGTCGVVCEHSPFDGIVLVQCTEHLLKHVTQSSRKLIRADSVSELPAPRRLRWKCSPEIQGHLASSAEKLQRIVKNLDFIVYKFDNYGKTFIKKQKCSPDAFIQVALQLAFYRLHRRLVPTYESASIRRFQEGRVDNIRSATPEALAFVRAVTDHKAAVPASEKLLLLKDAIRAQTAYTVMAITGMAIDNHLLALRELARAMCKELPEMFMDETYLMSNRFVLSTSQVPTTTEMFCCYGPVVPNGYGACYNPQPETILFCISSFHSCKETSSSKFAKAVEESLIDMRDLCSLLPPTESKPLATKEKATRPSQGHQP
Put plainly: In vitro ChAT activity inhibition fluorometric assay and kinetic studies. Type of data set: biochemical. As to conditions: for mode of inhibition of human rChAT: Lineweaver-Burk plot and nonlinear regression fit; for Vmax of rChAT: inhibitor 0.4 µM, mean ± SEM of two experiments; for Ki / IC50: mean of two experiments; for IC50: substrate concentrations 20 to 80 µM.

The next data set relates to HEK 293 cells. Put plainly: MTT cell viability assay. Type of data set: cell-based. To be noted: for % of cell proliferation: overnight, control cells 100%, mean ± SD of 3 readings; for cellular toxicity in MTT assay (in words): 10 and 50 µM. On the procedure:
Finally, to assess the prospective of the identified compounds for further development into ChAT ligands, we assessed the compounds active against ChAT, AChE and BuChE, for their cellular toxicity on human embryonic kidney (HEK 293) cells using the cell viability 3-(4,5-dimethylthiazol-2-yl)-2,5-diphenyltetrazolium bromide (MTT) assay. All compounds were evaluated at 10 and 50 µM concentrations. The cell viability data is given in Table 4 (also represented as a bar chart in Fig. 9).
The in vitro cellular toxicity of the active compounds was evaluated using MTT assay. Briefly, Human embryonic kidney epithelial (HEK-293) cells cultured at 37 °C in a humidified environment with 5% CO2 in Dulbecco’s Modified Eagle’s medium (DMEM) in 96 well plate to obtain 70–80% confluency. Further, the cells were incubated overnight at 37 °C with 10 µM and 50 µM compounds in triplicate. Cells treated with 1% DMSO were used as controls. At the end of the treatment (12 h), 10 μL of 12 mM MTT dissolved in Phosphate buffer saline pH 7.4, was added to each well and incubated for an additional 2 h at 37 °C. The media was then removed from the plate and 100 µL of DMSO was added to dissolve the violet formazan crystals. Finally, the absorbance was measured at 540 nm with a reference wavelength of 630 nm on Tecan spectrophotometer with shaking before the reading. The percentage viability was calculated taking 1% DMSO control as 100 percent and presented as mean ± SD.
(In general: Tetrazolium dyes change colour on reduction, which living cells bring about.)

SMILES strings stand for the structures. “And” between values parts separate entries of the source, which are not always exact repeats. Identical values can stand only once. Some results are limits rather than exact numbers.

As usually defined, the Ki is the dissociation constant of the complex between target and ligand, obtained from inhibition or displacement. The IC50 is the point on the concentration scale where inhibition reaches its midpoint. The inhibition is the change of the read-out against control, counted positive when it falls.

Consider `CC(C)NC(=O)C1CCN(C(=O)c2csc(Nc3cccc4ccccc34)n2)CC1` [Compound B4], for which, at human rChAT, the “mode of inhibition of human rChAT” value is listed as “mixed-model type inhibition”; the “Vmax of rChAT” value is 239.0 ± 21.4 µM/min; the affinity, expressed as Ki, was 11.9 µM; the IC50 is ~16.5 µM and 16.5 µM. Further, the “% of cell proliferation” value in the data set with HEK 293 cells (10 µM) amounted to 106.4 ± 5.8%. In addition, in the data set on HEK 293 cells (50 µM), the “% of cell proliferation” value is 74.2 ± 3.9%. For the same compound, the “cellular toxicity in MTT assay (in words)” value in the data set on HEK 293 cells is recorded as “lower cellular toxicity”.

Consider `CC(C)c1ccc(C(=O)CSc2n[nH]c(-c3ccco3)n2)cc1` [Compound E1], for which the inhibition at 100 µM at human rChAT (100 µM compound, compared to control, mean of three experiments in triplicate, read-out: ChAT % IR (inhibition rate)) is more than 50%. Further, at human rChAT, the “mode of inhibition of human rChAT” value was “mixed-model inhibition”; the “Vmax of rChAT” value is reported as 276.1 ± 12.1 µM/min; the inhibitory constant (Ki) is ~15.2 µM and 15.2 µM; the IC50 was ~25.4 µM and 25.4 µM. The “% of cell proliferation” value with HEK 293 cells (10 µM) turned out to be 101.9 ± 0.6%. Besides, the “% of cell proliferation” value in the data set with HEK 293 cells (50 µM) is on record as 75.4 ± 4.9%. For the same compound, the “cellular toxicity in MTT assay (in words)” value with HEK 293 cells was “lower cellular toxicity”.

Values taken from publication PMC5701137, “Discovery of novel choline acetyltransferase inhibitors using structure-based virtual screening” (Scientific Reports, 2017).
